Columns and labels:
[1] = tested on: 5-HT3 receptor; experiment: 5-HT3 receptor binding test ([^3 H] quipazine, NG108-15 cell membrane fraction); parameters: species or system rat; conditions: 2 nM [^3 H] quipazine, 37° C., 60 minutes, pH 7.5; for Inhibition Rate (%) (concentration) 10^-7 M: 10^-7 M test compound; for Inhibition Rate (%) (concentration) 10^-8 M: 10^-8 M test compound
Procedure: 5-HT3 receptor binding test
Using rat neutroblastoma-glicoma NG108-15 cell membrane fraction, the binding activities of the test compounds to 5-HT3 receptor were examined.
A membrane fraction of NG108-15 cells was prepared according to the method of Neijt et al. [Naunyn-Schmiedeberg's Arch. Pharmacol., 337, 493 (1988)].
The receptor binding test was performed using [^3 H] quipazine [J. Neurochem., 52, 1787 (1989)], a high affinity ligand to 5-HT3 receptor.
A membrane fraction obtained from 4×10^5 NG108-15 cells was suspended in 1 ml of 20 mM Tris-hydrochloride buffer (pH 7.5) (hereinafterreferred to as Buffer) containing 154 mM sodium chloride. Then, 2 nM [^3 H] quipazine (2519.7 GBq/mmol; NEN CO.) and various concentrations of the test compound were added to the suspension followed by incubating at 37° C. for 60 minutes. 4 ml of ice-cold Buffer was added to terminate the reaction and then the mixture was filtered through GF/C glass fiber filter (Whatmann Co., Ltd.). The filter was washed 5 times with 2 ml of ice-cold Buffer, and put in a scintillation vial containing 8 ml of Scintisol EX-H (Wako Pure Chemicals, Inc.). Radioactivity on the filter was counted in a liquid scintillation counter (TRI-CARB 2200CA; Packard Co., Ltd.).
An inhibition of the [^3 H] quipazine binding by the test compound was estimated according to the equation; [formula]
"Total binding" is [^3 H] quipazine-binding in the absence of test compound and "non-specific binding" is [^3 H] quipazine-binding in the presence of 10 μM MDL7222 5-HT3 antagonist [Naunyn-Schmiedeberg's Arch. Pharmacol., 326, 36 (1984)].

[2] = tested on: Cisplatin-induced Vomiting; experiment: Activity Against Cisplatin-induced Vomiting; format: in vivo, Suncus murinus; conditions: 1.0 mg/kg i.p., 30 minutes before cisplatin 40 mg/kg i.p., n = 10
Procedure: Activity Against Cisplatin-induced Vomiting
In one group, 5 to 10 female and male Suncus murinus animals weighing 23 to 68 g were used. According to the method of Matsuki et al. [Japan J. Pharmacol., 48, 303 (1988)], each animal was put into a separate metal net cage (width 15 cm ×length 21 cm ×height 15 cm). One hour after, a test compound or physiological saline (control) was intraperitoneally (i.p.) administered in a dose of 10 μl/g of body weight. Further 30 minutes after administration of the test compound or physiological saline (control), 40 mg/kg of cisplatin was intraperitoneally administered. Taking no account of vomiting caused for 5 minytes after administration of cisplatin, a time period (latency) for the first vomiting and the number of frequencies (episodes) of vomiting caused for the period of 5 to 120 minutes after administration were determined. The latency and the number of frequencies in the test compound administered group were compared with those in the control group. The test of significance was performed by Student's t-test.

[3] = tested on: dd-Y-strain male mice; experiment: Acute Toxicity (minimum lethal dose); format: in vivo; conditions: mortality for 7 days
Procedure: A test compound was intraperitoneally and orally administered to dd-Y-strain male mice weighing 20 to 25 g. The minimum lethal dose (MLD) was determined by observing the mortality for 7 days after the administration.

CN1[C@@H]2CC[C@H]1C[C@@H](NC(=O)c1c(O)c3sccc3[nH]c1=O)C2 [Compound 1, Endo-N-(8-methyl-8-azabicyclo[3.2.1]oct-3-yl)-4,5-dihydro-7-hydroxy-5-oxothieno[3,2-b]pyridine-6-carboxamide]
Inhibition Rate (%) (concentration) 10^-7 M [1]: 94% | Inhibition Rate (%) (concentration) 10^-8 M [1]: 44% | Number of Vomiting episodes (mean ± S.E.M.) ([2]; 5 to 120 minutes after cisplatin, control 29.2 ± 4.5 (n = 5)): 9.3 ± 2.2 | Latency (min.) (mean ± S.E.M.) ([2]; time to first vomiting, control 28.6 ± 6.3 (n = 5)): 66.0 ± 10.4 min | MLD (mg/kg) i.p. [3]: > 100 mg/kg | MLD (mg/kg) p.o. [3]: > 300 mg/kg

CCCCn1c(=O)c(C(=O)N[C@H]2C[C@H]3CC[C@@H](C2)N3C)c(O)c2sccc21 [Compound 3, Endo-N-(8-methyl-8-azabicyclo[3.2.1]oct-3-yl)-4-(n-butyl)-4,5-dihydro-7-hydroxy-5-oxothieno[3,2-b]pyridine-6-carboxamide]
Inhibition Rate (%) (concentration) 10^-7 M [1]: 101% | Inhibition Rate (%) (concentration) 10^-8 M [1]: 98% | MLD (mg/kg) p.o. [3]: > 200 mg/kg

CCCCn1c(=O)c(C(=O)O[C@H]2C[C@H]3CC[C@@H](C2)N3C)c(O)c2sccc21 [Compound 4, Endo-8-methyl-8-azabicyclo[3.2.1]oct-3-yl 4-(n-butyl)-4,5-dihydro-7-hydroxy-5-oxothieno[3,2-b]pyridine-6-carboxylate]
MLD (mg/kg) i.p. [3]: > 50 mg/kg | MLD (mg/kg) p.o. [3]: > 100 mg/kg

CCCCn1c(=O)c(C(=O)N[C@H]2C[C@H]3CC[C@@H](C2)N3C)c(O)c2ccsc21 [Compound 5, Endo-N-(8-methyl-8-azabicyclo[3.2.1]oct-3-yl)-7-(n-butyl)-6,7-dihydro-4-hydroxy-6-oxothieno[2,3-b]pyridine-5-carboxamide]
Inhibition Rate (%) (concentration) 10^-7 M [1]: 105% | Inhibition Rate (%) (concentration) 10^-8 M [1]: 100% | MLD (mg/kg) i.p. [3]: > 100 mg/kg | MLD (mg/kg) p.o. [3]: > 300 mg/kg

CCCCn1c(=O)c(C(=O)O[C@H]2C[C@H]3CC[C@@H](C2)N3C)c(O)c2ccsc21 [Compound 6, Endo-8-methyl-8-azabicyclo[3.2.1]oct-3-yl 7-(n-butyl)-6,7-dihydro-4-hydroxy-6-oxothieno[2,3-b]pyridine-5-carboxylate]
MLD (mg/kg) i.p. [3]: > 100 mg/kg | MLD (mg/kg) p.o. [3]: > 100 mg/kg

CN1[C@@H]2CC[C@H]1C[C@@H](NC(=O)c1c(O)c3ccsc3[nH]c1=O)C2 [Compound 7, Endo-N-(8-methyl-8-azabicyclo[3.2.1]oct-3-yl)-6,7-dihydro-4-hydroxy-6-oxothieno[2,3-b]pyridine-5-carboxamide]
Inhibition Rate (%) (concentration) 10^-7 M [1]: 71% | Inhibition Rate (%) (concentration) 10^-8 M [1]: 23%

CN1[C@@H]2CC[C@H]1C[C@@H](OC(=O)c1c(O)c3ccsc3[nH]c1=O)C2 [Compound 8, Endo-8-methyl-8-azabicyclo[3.2.1]oct-3-yl 6,7-dihydro-4-hydroxy-6-oxothieno[2,3-b]pyridine-5-carboxylate]
MLD (mg/kg) i.p. [3]: > 100 mg/kg | MLD (mg/kg) p.o. [3]: > 300 mg/kg

CN1[C@@H]2CCC[C@H]1C[C@@H](NC(=O)c1c(O)c3ccsc3[nH]c1=O)C2 [Compound 9, Endo-N-(9-methyl-9-azabicyclo[3.3.1]non-3-yl)-6,7-dihydro-4-hydroxy-6-oxothieno[2,3-b]pyridine-5-carboxamide]
Inhibition Rate (%) (concentration) 10^-7 M [1]: 69% | Inhibition Rate (%) (concentration) 10^-8 M [1]: 12% | MLD (mg/kg) i.p. [3]: > 50 mg/kg | MLD (mg/kg) p.o. [3]: > 300 mg/kg

Reference: US5155115A, “Thienopyridine derivatives” (Kyowa Hakko Kogyo Co., Ltd., priority 1991, dated 1992)
